Measurements from US9169315B2, “Heparin cofactor II fragments with anti-inflammatory and anti-coagulant activity” (XIMMUNE AB, priority 2009, dated 2015).
No end group written: not given here.

Experiments:
[1] = system: Escherichia coli, Pseudomonas aeruginosa, Bacillus subtilis, Staphylococcus aureus, Candida albicans, Candida parapsilosis; test: Radial diffusion assay (RDA); assay type: cell-based; conditions: peptide at 100 μM; compared with LL-37
Protocol: Essentially as described earlier, bacteria were grown to mid-logarithmic phase in 10 ml of full-strength (3% w/v) trypticase soy broth (TSB) (Becton-Dickinson). The microorganisms were then washed once with 10 mM Tris, pH 7.4. Subsequently, 4×10^6 cfu were added to 15 ml of the underlay agarose gel, consisting of 0.03% (w/v) TSB, 1% (w/v) low electroendosmosis type (EEO) agarose (Sigma-Aldrich) and 0.02% (v/v) Tween 20 (Sigma-Aldrich). The underlay was poured into a Ø 144 mm petri dish. After agarose solidification, 4 mm-diameter wells were punched and 6 μl peptide solution of required concentration added to each well. Plates were incubated at 37° C. for 3 h to allow peptide diffusion. The underlay gel was then covered with 15 ml of molten overlay (6% TSB and 1% Low-EEO agarose in distilled H2O). Antimicrobial activity of a peptide was visualized as a zone of clearing around each well after 18-24 h of incubation at 37° C.
Essentially as described earlier (Lehrer, Rosenman et al. 1991; Andersson, Rydengård et al. 2004), bacteria were grown to mid-logarithmic phase in 10 ml of full-strength (3% w/v) trypticase soy broth. (TSB) (Becton-Dickinson). The microorganisms were then washed once with 10 mM Tris, pH 7.4. Subsequently, 4×10^6 cfu were added to 15 ml of the underlay agarose gel, consisting of 0.03% (w/v) TSB, 1% (w/v) low electroendosmosis type (EEO) agarose (Sigma-Aldrich) and 0.02% (v/v) Tween 20 (Sigma-Aldrich). The underlay was poured into a Ø 144 mm petri dish. After agarose solidification, 4 mm-diameter wells were punched and 6 μl peptide solution of required concentration added to each well. Plates were incubated at 37° C. for 3 h to allow peptide diffusion. The underlay gel was then covered with 15 ml of molten overlay (6% TSB and 1% Low-EEO agarose in distilled H2O). Antimicrobial activity of a peptide was visualized as a zone of clearing around each well after 18-24 h of incubation at 37° C. […]

[2] = system: intrinsic pathway of coagulation; test: Activated partial thromboplastin time (aPTT); conditions: normal human plasma
Protocol: All clotting times were measured using an Amelung coagulometer. Activated partial thromboplastin time (aPTT) was measured by incubating the peptides diluted in sterile water at the indicated concentrations, with 100 μL citrated human plasma for 1 minute followed by the addition of 100 μL aPTT reagent (aPTT Automate, Diagnostica Stago) for 60 seconds at 37° C. Clotting was initiated by the addition of 100 μL of a 25-mM CaCl2 solution. In the prothombrin time assay (PT), clotting was initiated by the addition of 100 μL Thrombomax with calcium (PT reagent; Sigma-Aldrich). For measuring the thrombin clotting time (TCT), clotting was initiated by the addition of 100 μL Accuclot thrombin time reagent (TCT reagent; Sigma-Aldrich).
All clotting times were analyzed using a coagulometer (Amelung, Lemgo, Germany). The prothrombin time (PT) and the Thrombin clotting time (TCT) were measured as followed: Hundred microliter of fresh human citrate plasma together with indicated concentrations of NLF20 were pre-warmed for 60 sec at 37° C. before clot formation was initiated by adding 100 μl a clotting reagent. (PT-thromboplastin reagent (Trinity Biotech), TCT: Thrombin reagent (Technoclone)). To record the activated partial thromboplastin time (aPTT), 100 μl of a kaolin-containing solution (Technoclone) was add to the plasma-peptide mix and incubated for 200 sec before clot formation was initiated by adding 100 μl of 30 mM fresh CaCl2 solution.

Row | Sequence | Antimicrobial activity in RDA (zones of clearance) [1] | Activated partial thromboplastin time (aPTT) [2]
1 | KYEITTIHNLFRKLTHRLFRR [KYE21] | activities were similar to those observed for | only minor blocking of the aPTT
2 | KYEITTIHNLFRKLTHRLFRRNFGYTLR [KYE28] | activities were similar to those observed for | impair the intrinsic pathway of coagulation
3 | NLFRKLTHRLFRRNFGYTLR [NLF20] | well exceeded those observed for | impaired the intrinsic pathway of coagulation
